Measured values published in PMC11411711 (ACS Nano, 2024).
Read-outs that look alike come from different tables or passages of the source. Square brackets hold non-standard residues; d marks the D form. Peptide text beside a SMILES is read from it. * marks the point of attachment. 5FAM = O=C1OC2(c3ccc(O)cc3Oc3cc(O)ccc32)c2ccc(C(=O)*)cc21; Nle = CCCC[C@H](N)C(=O)O; Cbz = O=C(OCc1ccccc1)*

Legend:
cathepsin L = conditions: read-out: Ki for cathepsin L; calpastatin peptide; ref [32]−[35]; cited from earlier work
calpain [1] = conditions: cited from earlier work; for Ki: read-out: Ki for calpain; for IC50: read-out: IC50, calpain inhibitor
calpain-1 = conditions: read-out: Ki for calpain-1; calpain inhibitor II; ref [13],[24]; cited from earlier work
calpain-2 = conditions: read-out: Ki for calpain-2; calpain inhibitor II; ref [13],[24]; cited from earlier work
cathepsin B = conditions: read-out: Ki for cathepsin B; calpain inhibitor II; ref [13],[24]; cited from earlier work
[2] = tested on: neurofilament and spectrin proteolysis in the cortex; conditions: continuous intra-arterial infusion after TBI; ref [13],[24]; cited from earlier work
[3] = tested on: neuronal and hippocampal culture models of injury; conditions: ref [16]−[19]; cited from earlier work
TBI = conditions: large multicenter clinical trials in TBI; ref [4],[5]; cited from earlier work
[4] = target: T1, recombinant human calpain-1 (Homo sapiens, UniProt P07384); experiment: Inhibition of calpain-1 cleavage of CS FRET peptide by titrated CAST/ScrCAST; format: biochemical; conditions: up to 1 μM; 8 μM CS substrate; 26.6 nM recombinant human calpain-1; 37C
T1 sequence (P07384 1-714): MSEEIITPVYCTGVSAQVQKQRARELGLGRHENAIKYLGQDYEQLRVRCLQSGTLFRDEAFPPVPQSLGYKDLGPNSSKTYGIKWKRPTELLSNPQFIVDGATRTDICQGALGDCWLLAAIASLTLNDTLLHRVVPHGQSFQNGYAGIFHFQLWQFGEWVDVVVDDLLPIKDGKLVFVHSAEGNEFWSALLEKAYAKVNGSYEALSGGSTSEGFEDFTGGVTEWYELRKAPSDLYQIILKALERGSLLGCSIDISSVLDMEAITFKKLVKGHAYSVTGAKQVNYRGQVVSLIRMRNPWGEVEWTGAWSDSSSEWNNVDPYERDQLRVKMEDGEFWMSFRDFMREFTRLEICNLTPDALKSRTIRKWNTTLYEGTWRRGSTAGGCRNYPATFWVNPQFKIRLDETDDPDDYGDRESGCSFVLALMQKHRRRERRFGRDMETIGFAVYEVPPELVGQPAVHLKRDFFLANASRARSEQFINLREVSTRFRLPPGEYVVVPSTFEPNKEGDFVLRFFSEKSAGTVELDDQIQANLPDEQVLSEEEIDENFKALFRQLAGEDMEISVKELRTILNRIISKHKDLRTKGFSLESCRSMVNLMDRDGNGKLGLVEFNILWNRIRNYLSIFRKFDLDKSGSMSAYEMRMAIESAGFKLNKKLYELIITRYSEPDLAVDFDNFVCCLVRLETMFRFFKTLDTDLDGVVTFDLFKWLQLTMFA
T1 sequence (P04632 1-268 partner): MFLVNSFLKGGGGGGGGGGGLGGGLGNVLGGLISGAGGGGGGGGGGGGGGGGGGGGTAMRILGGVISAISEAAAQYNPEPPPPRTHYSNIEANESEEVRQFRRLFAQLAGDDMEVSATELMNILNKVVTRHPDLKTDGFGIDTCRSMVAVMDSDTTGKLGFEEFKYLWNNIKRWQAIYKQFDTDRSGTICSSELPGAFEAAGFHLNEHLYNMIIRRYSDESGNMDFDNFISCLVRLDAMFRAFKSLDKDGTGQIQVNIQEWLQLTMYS

[5] = target: T1, recombinant human calpain-1; experiment: CS activation of PEG conjugates by recombinant human calpain-1; format: biochemical; conditions: 37C, 1 h
calpain [6] = experiment: Activated CS signal in injured cortex and hippocampus, CCI mouse model; conditions: mouse model of TBI, systemic administration
[7] = tested on: calpain activity in the hippocampus; experiment: Activated CS in hippocampal regions; conditions: dentate gyrus, CA1, CA2, CA3; 1 h after injury; n = 10 mice, unpaired t-test

For CC[C@H](C)[C@H](NC(=O)[C@H](Cc1ccc(O)cc1)NC(=O)[C@@H](NC(=O)[C@H](CO)NC(=O)[C@H](CO)NC(=O)[C@H](CCSC)NC(=O)[C@@H]1CCCN1C(=O)[C@@H](N)CC(=O)O)[C@@H](C)O)C(=O)N[C@@H](CCC(=O)O)C(=O)N[C@@H](CCC(=O)O)C(=O)N[C@@H](CC(C)C)C(=O)NCC(=O)N[C@@H](CCCCN)C(=O)N[C@@H](CCCNC(=N)N)C(=O)N[C@@H](CCC(=O)O)C(=O)N[C@H](C(=O)N[C@H](C(=O)N[C@H](C(=O)N1CCC[C@H]1C(=O)N1CCC[C@H]1C(=O)N[C@@H](CCCCN)C(=O)N[C@@H](Cc1ccc(O)cc1)C(=O)N[C@@H](CCCNC(=N)N)C(=O)N[C@@H](CCC(=O)O)C(=O)N[C@@H](CC(C)C)C(=O)N[C@@H](CC(C)C)C(=O)N[C@@H](C)C(=O)N[C@@H](CCCCNC(=O)c1ccc2c(c1)C(=O)OC21c2ccc(O)cc2Oc2cc(O)ccc21)C(=O)N[C@@H](CS)C(N)=O)[C@@H](C)CC)[C@@H](C)O)C(C)C [CAST] (H-DPMSSTYIEELGKREVTIPPKYRELLAK(5FAM)C-NH2; N-terminus assumed), the Ki (cathepsin L) is listed as 6000 nM and the Ki (calpain [1]; calpastatin peptide, ref [32]−[35]) is listed as 42.6 nM.

For CC(C)[C@H](NC(=O)OCc1ccccc1)C(=O)N[C@H](C=O)Cc1ccccc1 [MDL-28170] (Cbz-Val-Phe-aldehyde), the IC50 (calpain [1]; MDL-28170, ref [64]) is listed as 11 nM and the Ki (calpain [1]; MDL-28170, ref [20],[28]) is listed as 10 nM.

For CSCC[C@@H](C=O)NC(=O)[C@H](CC(C)C)NC(=O)[C@H](CC(C)C)NC(C)=O [calpain inhibitor II] (Ac-Leu-Leu-Met-aldehyde), the Ki (calpain-1) is listed as 120 nM, the Ki (calpain-2) is listed as 230 nM and the Ki (cathepsin B) is listed as 100 nM. The “neurofilament and spectrin proteolysis in the cortex” value [2] was “required continuous intra-arterial infusion after TBI to significantly reduce neurofilament and spectrin proteolysis in the cortex” and the “cell apoptosis, actin and spectrin proteolysis, DNA fragmentation” value [3] was “reduce cell apoptosis, suppress actin and spectrin proteolysis, and inhibit DNA fragmentation”.

For CCCC[C@@H](C=O)NC(=O)[C@H](CC(C)C)NC(=O)[C@H](CC(C)C)NC(C)=O [calpain inhibitor I] (Ac-Leu-Leu-[Nle]-aldehyde), the IC50 (calpain [1]; calpain inhibitor I, ref [63]) is listed as 90 nM.

For CC(=O)[C@H]1CC[C@H]2[C@@H]3CCC4=CC(=O)CC[C@]4(C)[C@H]3CC[C@]12C [progesterone], the “efficacy as acute stage neuroprotective treatment” value (TBI) is given as “failed to establish efficacy as an acute stage neuroprotective treatment”.

For “APRLEIVPTMYIYKLSPTGSEKLEDER-K(5FAM)-C-NH2 [ScrCAST]”, the “detectable inhibitory activity on calpain-1” value [4] was “does not have any detectable inhibitory activity up to 1 μM”.

In the case of “CAST–PEG–CS: 40 kDa 8-arm PEG scaffold modified with CAST and CS peptide (activity-based nanotheranostic) (chain 1 DPMSSTYIEELGKREVTIPPKYRELLAKC; chain 2 QEVYGAMPKGC; not fully specified; 5FAM on the added lysine; C-terminal amide; cysteine joined to the 8-arm PEG by maleimide chemistry | QSY21 on the N-terminus; Cy5 on the lysine; PEG2 spacer between K(Cy5) and GC; c)”, the “inhibition of calpain-1 at increased enzyme concentration” value ([5]; calpain-1 up to 6U (∼380 nM), 8 μM CS) is reported as “able to inhibit activity and cleavage of the CS substrate compared to ScrCAST–PEG–CS”, the “CS activation by calpain-1” value ([5]; conjugates matched to 8 μM CS, 26.6 nM recombinant human calpain-1, Cy5 fluorescence) is reported as “no measured activation of CS peptide” and the “inhibition of calpain activity, cortical vs hippocampal neurons” value (calpain [6]) is reported as “greater ABNT-mediated inhibition of calpain activity in cortical neurons compared to that in hippocampal neurons”. For the same molecule, the “sensor activation in hippocampal regions” value [7] was “inhibits activation of CS in the injured hippocampus”.
